Source: patent US8486900B2, “Method for preparing a Centella asiatica extract rich in madecassoside and in terminoloside” (Bayer Consumer Care AG, priority 2002, dated 2013)

Legend:
[1] = system: human keratinocytes, strain K02-1H4; test: Cytotoxicity, Neutral Red assay on human keratinocytes strain K02-1H4; assay type: cell-based; conditions: for Viability (72 h), % of control: Example 12, K02-1H4, 72 h
Procedure: In addition, added to the cytotoxicity study was an assay on human keratinocytes, strain K02-1H4, in order to confirm that the concentrations were nontoxic on the target cells.
[…] […] The cell viability was determined by means of a Neutral Red assay.
Added to the cytotoxicity study was an assay on human keratinocytes (strain K02-1H4) in order to confirm the nontoxicity of the concentrations on the “target” cells. Table 24 below groups together all the results (cell viability as % of control).

IL-1α = test: IFN-γ-induced intracellular IL-1α production by normal human keratinocytes; assay type: cell-based; conditions: for IL-1α (intracellular): K02-1H6, IFN-γ 1000 U/ml, 48 h + 24 h
Procedure: In order to evaluate the anti-inflammatory activity of terminoloside, of madecassoside and of the mixture of heterosides, we studied the modulatory effects of these three active agents with respect to the production and release of proinflammatory epidermal cytokines (IL-1α, IL-8, PGE-2) by human keratinocytes in culture, subjected to an irritative stress induced either with interferon-gamma (IFN-γ) or with PMA. Human keratinocytes were isolated from human skin. The cells were cultured in serum-free KGM medium (Keratinocyte Growth Medium, sold by the company Clonetics®), according to the usual techniques set up in the laboratory, at 37° C. in a humid air-CO2 (95%-5%) atmosphere. The cells were seeded into 25 cm^2 flasks and passaged regularly before reaching confluency. The principle of the assay is based on evaluating the production of proinflammatory cytokines by human keratinocytes, in response to an irritative stress. The method is based on measuring the intracellular amount of IL-1α and of the amounts of IL-8 and of PGE-2 released into the extracellular medium by keratinocytes cultured in the absence and in the presence of the products being studied, and stimulated even with interferon-gamma (IFN-γ) or with PMA (phorbol-12-myristate-13-acetate).
The study was carried out on keratinocytes isolated from foreskin of young children (strain K02-1H6).
1. Treatment of the cells for 48 h with the product being studied before induction of the irritative stress; 2. induction of the irritative stress: IFN-γ (1000 U/ml); 3. incubation of the “activated” cells, for 24 h, in the presence of the product being studied; 4. assay: IL-8 (extracellular) and IL-1α (intracellular). Cellular protein assay.
Tables 34 to 36 below group together the intracellular amounts of IL-1α after activation of the cells (+IFN-γ), and the basal amount (−IFN-γ). The IFN-γ-induced production of IL-1α and the anti-inflammatory activity (AIA) were calculated for each concentration according to: Il-1α production=IL-1α(+IFN)−IL-1α(−IFN) AIA=[(IL-1α production(control cells)−IL-1α production(treated cells)/IL-1α production(control cells)]×100

`CC1OC(O[C@@H]2C(CO)OC(OCC3OC(OC(=O)C4CC(C)(C)CC5C6=CCC7C(CC(O)C8C(C)(CO)C(O)C(O)CC78C)C6(C)CCC45)[C@@H](O)C(O)[C@@H]3O)[C@@H](O)C2O)[C@@H](O)C(O)[C@H]1O` (stereo partly drawn) [Terminoloside, 1-[O-α-L-rhamnopyranosyl-(1-4)-O-β-glucopyranosol-(1-6)]-O-β-D-glucopyranose 2α,3β,6β,23-tetrahydroxyolea-12-en-28-oate] was tested, and the “Viability (72 h), % of control” value ([1]; 0.25 mg/ml) was 101%, the “Viability (72 h), % of control” value ([1]; 0.5 mg/ml) was 103% and the “Viability (72 h), % of control” value ([1]; 0.75 mg/ml) was 103%. For the same molecule, the “Viability (72 h), % of control” value ([1]; 1.0 mg/ml) was 102%, the “Viability (72 h), % of control” value ([1]; 2.5 mg/ml) was 99% and the “Viability (72 h), % of control” value ([1]; 5 mg/ml) was 96%. For the same molecule, the “Viability (72 h), % of control” value ([1]; 10 mg/ml) was 69%, the nontoxic concentrations ([1]; K02-1H4, 72 h of incubation) was “less than or equal to 2.5 mg/ml” and the “IL-1α production (+IFN minus −IFN)” value (IL-1α; 0.1 mg/ml) was 6.07. For the same molecule, the “IL-1α production (+IFN minus −IFN)” value (IL-1α; 0.25 mg/ml) was 5.37, the “IL-1α production (+IFN minus −IFN)” value (IL-1α; 0.5 mg/ml) was 4.60 and the “IL-1α production (+IFN minus −IFN)” value (IL-1α; 1 mg/ml) was 2.31. The inhibition at 100 µg/mL (IL-1α; Homo sapiens, Keratinocyte, IFN-γ 1000 U/ml, 0.1 mg/ml, read-out: Anti-inflammatory activity (%), IL-1α) was 17%, the inhibition at 250 µg/mL (IL-1α; Homo sapiens, Keratinocyte, IFN-γ 1000 U/ml, 0.25 mg/ml, read-out: Anti-inflammatory activity (%), IL-1α) was 27% and the inhibition at 500 µg/mL (IL-1α; Homo sapiens, Keratinocyte, IFN-γ 1000 U/ml, 0.5 mg/ml, read-out: Anti-inflammatory activity (%), IL-1α) was 37%. For the same molecule, the inhibition at 1000 µg/mL (IL-1α; Homo sapiens, Keratinocyte, IFN-γ 1000 U/ml, 1 mg/ml, read-out: Anti-inflammatory activity (%), IL-1α) was 68%, the “IL-1α (intracellular)” value (IL-1α; 0.1 mg/ml) was 8.78 pg/μg prot and the “IL-1α (intracellular)” value (IL-1α; 0.25 mg/ml) was 8.08 pg/μg prot. The “IL-1α (intracellular)” value (IL-1α; 0.5 mg/ml) was 7.31 pg/μg prot and the “IL-1α (intracellular)” value (IL-1α; 1 mg/ml) was 5.02 pg/μg prot.
